Laboratory results: patent publication US20060127894A1, “Protein associated with cell growth, differentiation, and death” (Incyte Corporation, priority 2001, published 2006)

How the values were obtained:
[1] = test system: SEQ ID NO:45 expression in C3A cells; assay: Microarray expression analysis of steroid-treated versus untreated C3A cells; type: cell-based, human
Description: Total RNA is isolated from tissue samples using the guanidinium thiocyanate method and poly(A)^+ RNA is purified using the oligo-(dT) cellulose method. Each poly(A)^+ RNA sample is reverse transcribed using MMLV reverse-transcriptase, 0.05 pg/μl oligo-(dT) primer (21 mer), 1×first strand buffer, 0.03 units/μL RNase inhibitor, 500 μM dATP, 500 μM dGTP, 500 μM dTTP, 40 μM dCTP, 40 μM dCTP-Cy3 (BDS) or dCTP-Cy5 (Amersham Biosciences). The reverse transcription reaction is performed in a […] containing 200 ng poly(A)^+ RNA with GEMBRIGHT kits (Incyte). Specific control poly(A)+ RNAs are synthesized by in vitro transcription from non-coding yeast genomic DNA. After incubation at 37° C. for 2 hr, each reaction sample (one with Cy3 and another with Cy5 labeling) is treated with […] of 0.5M sodium hydroxide and incubated for 20 minutes at 85° C. to the stop the reaction and degrade the RNA. Samples are purified using two successive CHROMA SPIN 30 gel filtration spin columns (CLONTECH Laboratories, Inc. (CLONTECH), Palo Alto Calif.) and after combining, both reaction samples are ethanol precipitated using 1 ml of glycogen (1 mg/ml), 60 ml sodium acetate, and 300 ml of 100% ethanol. The sample is then dried to completion using a SpeedVAC (Savant Instruments Inc., Holbrook N.Y.) and resuspended in 14 μl 5×SSC/0.2% SDS.
Sequences of the present invention are used to generate array elements. Each array element is amplified from bacterial cells containing vectors with cloned cDNA inserts. PCR amplification uses primers complementary to the vector sequences flanking the cDNA insert. Array elements are amplified in thirty cycles of PCR from an initial quantity of 1-2 ng to a final quantity greater than 5 μg. Amplified array elements are then purified using […]-400 (Amersham Biosciences).
Hybridization reactions contain 9 μl of sample mixture consisting of 0.2 μg each of Cy3 and Cy5 labeled cDNA synthesis products in 5×SSC, 0.2% SDS hybridization buffer. The sample mixture is heated to 65° C. for 5 minutes and is aliquoted onto the microarray surface and covered with an 1.8 cm^2 coverslip. The arrays are transferred to a waterproof chamber having a cavity just slightly larger than a microscope slide. The chamber is kept at 100% humidity internally by the addition of 140 μl of 5×SSC in a comer of the chamber. The chamber containing the arrays is incubated for about 6.5 hours at 60° C. The arrays are washed for 10 min at 45° C. in a first wash buffer (1×SSC, 0.1% SDS), three times for 10 minutes each at 45° C. in a second wash buffer (0.1×SSC), and dried.
Reporter-labeled hybridization complexes are detected with a microscope equipped with an Innova 70 mixed gas 10 W laser (Coherent, Inc., Santa Clara Calif.) capable of generating spectral lines at 488 nm for excitation of Cy3 and at 632 nm for excitation of CyS. The excitation laser light is focused on the array using a 20× microscope objective (Nikon, Inc., Melville N.Y.). The slide containing the array is placed on a computer-controlled X-Y stage on the microscope and raster-scanned past the objective. The 1.8 cm×1.8 cm array used in the present example is scanned with a resolution of 20 micrometers.
A grid is superimposed over the fluorescence signal image such that the signal from each spot is centered in each element of the grid. The fluorescence signal within each element is then integrated to obtain a numerical value corresponding to the average intensity of the signal. […]

[2] = cited from earlier work
[3] = test system: human umbilical vein endothelial cells (HUVECs); settings: cited from earlier work
[4] = test system: SEQ ID NO:33 expression in BT-20 cells; assay: Microarray expression analysis of BT-20 cells treated with EGF; type: cell-based, human; settings: BT-20 breast carcinoma cells
Description: Total RNA is isolated from tissue samples using the guanidinium thiocyanate method and poly(A)^+ RNA is purified using the oligo-(dT) cellulose method. Each poly(A)^+ RNA sample is reverse transcribed using MMLV reverse-transcriptase, 0.05 pg/μl oligo-(dT) primer (21 mer), 1×first strand buffer, 0.03 units/μL RNase inhibitor, 500 μM dATP, 500 μM dGTP, 500 μM dTTP, 40 μM dCTP, 40 μM dCTP-Cy3 (BDS) or dCTP-Cy5 (Amersham Biosciences). The reverse transcription reaction is performed in a […] containing 200 ng poly(A)^+ RNA with GEMBRIGHT kits (Incyte). Specific control poly(A)+ RNAs are synthesized by in vitro transcription from non-coding yeast genomic DNA. […]
Sequences of the present invention are used to generate array elements. […] Array elements are amplified in thirty cycles of PCR from an initial quantity of 1-2 ng to a final quantity greater than 5 μg. […]
Reporter-labeled hybridization complexes are detected with a microscope equipped with an Innova 70 mixed gas 10 W laser (Coherent, Inc., Santa Clara Calif.) capable of generating spectral lines at 488 nm for excitation of Cy3 and at 632 nm for excitation of CyS. […]
A grid is superimposed over the fluorescence signal image such that the signal from each spot is centered in each element of the grid. […]

[5] = dose 10 μM, 1 hour of treatment
[6] = dose 10 μM, 3 hours of treatment

6α-methyl-17-hydroxyprogesterone [medroxyprogesterone]
expression of SEQ ID NO:45 increased in drug-treated, as compared to untreated, C3A cells [1, 5]: at least two-fold | expression of SEQ ID NO:45 increased in drug-treated, as compared to untreated, C3A cells [1, 6]: at least two-fold | pharmacological activity relative to progesterone ([2]; greater than progesterone): about 15 times

C[C@H]1C[C@H]2[C@@H]3CCC4=CC(=O)C=C[C@]4(C)[C@@]3(Cl)[C@@H](O)C[C@]2(C)[C@@]1(O)C(=O)CO [beclomethasone]
expression of SEQ ID NO:45 increased in drug-treated, as compared to untreated, C3A cells ([1]; dose 1 μM, 3 hours of treatment): at least two-fold | expression of SEQ ID NO:45 increased in drug-treated, as compared to untreated, C3A cells [1, 5]: at least two-fold | expression of SEQ ID NO:45 increased in drug-treated, as compared to untreated, C3A cells [1, 6]: at least two-fold | anti-inflammatory and vasoconstrictive effects relative to hydrocortisone ([2]; intranasal, greater than those produced by hydrocortisone): 5000 times

TNF-α
increase of cellular secretions of MCP-1 compared with untreated cells [3]: 119 fold

epidermal growth factor: a potent mitogen (NSDSECPLSHDGYCLHDGVCMYIEALDKYACNCVVGYIGERCQYRDLKWWELR; Epidermal growth factor; UniProt P01133 971-1023, looked up)
expression of SEQ ID NO:33 down-regulated on treatment of BT-20 cells [4]: at least two-fold
